Several values for one entry are separate records, joined by “and”; a condition that tells them apart may be missing. Equal values may be shown once. Read-outs that look alike come from different tables or passages of the source.
Columns and labels:
HCT116 cells [1] = experiment: Morphological changes under DIC light microscope; format: cell-based, human; settings: HCT116, 5 μM daurinol
Description: Daurinol obtained by the method of Example 2 was treated to cancer cells and then morphological changes of the cancer cells were observed under DIC (differential interference contrast) light microscope.
HCT116 cells were inoculated in 60×15 cm culture dishes at the concentration of 5×10^5 cells per dish, followed by culture for 24 hours. 5 μM of daurinol dissolved in DMSO (Dimethyl Sulfoxide) was treated thereto, followed by culture for 12, 24, 48, 72 and 96 hours respectively. Morphological changes of the cells were observed under DIC light microscope.

DLD-1 [2] = experiment: Cell cycle analysis, propidium iodide staining, flow cytometry; format: cell-based, human; settings: for Cell cycle ratio, sub G0/G1 ratio (index for apoptosis): 48 hours (control 0); for Cell cycle ratio, S phase ratio: 48 hours (control 29.6)
Description: (§1) Human colon cancer cell lines HCT116 and DLD-1 were inoculated in 60×15 cm culture dishes at the concentration of 5×10^5 cells per dish, followed by culture for 24 hours. Daurinol dissolved in DMSO (Dimethyl Sulfoxide) was treated thereto at the concentrations of 5-20 μM for 24, 48 and 72 hours, respectively. The cells were harvested and washed with DPBS (Dulbecco's Phosphate Buffered Saline), followed by fixation in 70% ethanol at −20° C. for more than one day. The cells were washed again with DPBS and stained with propidium iodide for 20 minutes, and then were analyzed by flow cytometry. The propidium iodide selectively stains intracellular DNA. So, the fluorescence by propidium iodide and cell numbers was used as variants to make a graph, showing the pattern of cell cycle. According to this graph, cell cycle blocking activity of daurinol and apoptosis induced by daurinol could be confirmed.

HCT116 [3] = experiment: as above; format: cell-based, human; settings: for Cell cycle ratio, sub G0/G1 ratio (index for apoptosis): 48 hours (control 0.1); for Cell cycle ratio, S phase ratio: 48 hours (control 33.7)
Description: as §1

DLD-1 [4] = experiment: MTT cancer cell growth inhibition by daurinol; format: cell-based; settings: Homo sapiens, read-out: IC50 (concentration for 50% of cell growth inhibition)
Description: (§2) Daurinol obtained by the method of Example 2 was treated to human colon cancer cell lines HCT116 (American type of cell culture, ATCC) and DLD-1 (American type of cell culture, ATCC) to investigate the cancer cell growth inhibitory effect. The cell lines were cultured in MEM supplemented with 10% fetal bovine serum and antibiotics (penicillin and streptomycin) in a 37° C., 5% CO2 incubator. Sub-culture was performed every 2-3 days.
(§3) HCT116 and DLD-1 were inoculated in a 96-well plate at the concentration of 5×10^3 cells/well, followed by culture for 24 hours. Daurinol dissolved in DMSO (Dimethyl Sulfoxide) was treated thereto at different concentrations of 0.1-200 μg/ml for 24 and 48 hours. MTT reagent (methylthiazol-2-yl-2.5 diphenyl tetrazolium bromide) was treated thereto. 1-3 hours later, OD450 was measured to investigate cell growth.

HCT116 [5] = experiment: MTT cancer cell growth inhibition by daurinol; format: cell-based; settings: Homo sapiens, HCT-116, read-out: IC50 (concentration for 50% of cell growth inhibition)
Description: as §2, §3

HCT116 cells [6] = experiment: Apoptosis by annexin V-FITC / propidium iodide co-staining, flow cytometry; format: cell-based, human; settings: HCT116, 5 μM daurinol, 24 and 48 hours (FIGS. 7 and 8)
Source text: The induction of apoptosis by daurinol obtained by the method of Example 2 was thoroughly examined by co-staining with annexin V—FITC (fluorescein isothiocyanate) and propidium iodide.
In normal cells, phosphatidylserine, one of the cell membrane forming phospholipids, is always heading toward inside of the cell. When early apoptosis is induced, this phosphatidylserine is exposed outside of the cell. Thus, the apoptotic cells can be detected by using green fluorescence labeled annexin V that is selectively bound to phosphatidylserine.
HCT116 cells were inoculated in 60×15 cm culture dishes at the concentration of 5×10^5 cells per dish, followed by culture for 24 hours. Daurinol dissolved in DMSO (Dimethyl Sulfoxide) was treated thereto at the concentrations of 5 μM for 24 and 48 hours. The cells were harvested and washed with DPBS (Dulbecco's Phosphate Buffered Saline). 1×10^6 cells were stained with annexin V-FITC (fluorescein isothiocyanate) and propidium iodide for 15 minutes, and then were analyzed by flow cytometry.

Compound: COc1cc2c(-c3ccc4c(c3)OCO4)c3c(cc2cc1O)COC3=O [daurinol]
- Morphological changes of the cells (HCT116 cells [1]; after 24 hours (FIG. 9)): the boundary of the cells became obvious
- Morphological changes of the cells (HCT116 cells [1]; after 48 hours (FIG. 9)): started to detach from the bottom of culture dish
- Cell cycle ratio, sub G0/G1 ratio (index for apoptosis) (DLD-1 [2]; DLD-1, 5 μM daurinol): 0.3%
- Cell cycle ratio, S phase ratio (DLD-1 [2]; DLD-1, 5 μM daurinol): 68.6%
- Cell cycle ratio, sub G0/G1 ratio (index for apoptosis) (DLD-1 [2]; DLD-1, 10 μM daurinol): 0.6%
- Cell cycle ratio, S phase ratio (DLD-1 [2]; DLD-1, 10 μM daurinol): 64.1%
- Cell cycle ratio, sub G0/G1 ratio (index for apoptosis) (DLD-1 [2]; DLD-1, 20 μM daurinol): 1.4%
- Cell cycle ratio, S phase ratio (DLD-1 [2]; DLD-1, 20 μM daurinol): 68.0%
- S phase of cell cycle versus untreated control (HCT116 [3]; HCT116, 5 μM daurinol, 24, 48 and 72 hours (FIG. 5)): significantly increased
- Cell cycle ratio, sub G0/G1 ratio (index for apoptosis) (HCT116 [3]; HCT116, 5 μM daurinol): 3.8%
- Cell cycle ratio, S phase ratio (HCT116 [3]; HCT116, 5 μM daurinol): 52.8%
- sub G0/G1 ratio, the index for apoptosis (HCT116 [3]; HCT116, 5 μM daurinol, different treatment times (FIG. 6)): significantly increased
- Cell cycle ratio, sub G0/G1 ratio (index for apoptosis) (HCT116 [3]; HCT116, 10 μM daurinol): 4.6%
- Cell cycle ratio, S phase ratio (HCT116 [3]; HCT116, 10 μM daurinol): 61.1%
- Cell cycle ratio, sub G0/G1 ratio (index for apoptosis) (HCT116 [3]; HCT116, 20 μM daurinol): 9.4%
- Cell cycle ratio, S phase ratio (HCT116 [3]; HCT116, 20 μM daurinol): 60.8%
- IC50 (DLD-1 [4]; DLD-1, 24 hours treatment): 10.5 µg/mL and 30 µM
- IC50 (DLD-1 [4]; DLD-1, 48 hours treatment): 1.4 µg/mL and 4.08 µM
- IC50 (HCT116 [5]; HCT116, 24 hours treatment): 4.4 µg/mL and 12.4 µM
- IC50 (HCT116 [5]; HCT116, 48 hours treatment): 0.7 µg/mL and 2.07 µM
- Apoptosis (annexin V-FITC positive cells) versus control (HCT116 cells [6]): significantly induced

— US8227512B2, “Pharmaceutical composition containing daurinol for the prevention and treatment of cancers” (Korea Institute of Science and Technology, priority 2007, dated 2012)
